Measured values as given in patent US11655297B2, “ILDR2 antagonists and combinations thereof” (Bayer Aktiengesellschaft, priority 2017, dated 2023).

Tests used:
[1] = system: B16F10 syngeneic mouse model; assay: Tumor shrinking activity in B16F10 syngeneic mouse model (FIG. 9A); type: in vivo
Procedure: Tumor shrinking activity is measured as decrease of tumor volume, relative to an isotype control.
To determine the anti-tumor efficacy, such as for example, the tumor shrinking effect of the respective binders, two syngeneic mouse models (B16F10, CT26) were used as discussed above.

CT26 tumor model = assay: CT26 therapeutic, combination with aPD-L1; type: in vivo, mouse; settings: aPD-L1 10 mg/kg
Text: (§1) The following syngeneic tumor models were subcutaneously used in in vivo experiments: B16-F10 cells represent a mouse melanoma cell line derived from the skin of C57BL/6J mice. CT26 is an N-nitroso-N-methylurethane-(NNMU) induced, undifferentiated colon carcinoma cell line. It is a fibroblast cell type and derives from BALB/c mice. 3C9-D11-H11 cells are hybridoma B lymphocytes generated by fusion of spleen cells with Sp2/0-Ag14 myeloma cells. The spleen cells derive from BALB/c mice that were immunized with purified porcine parvovirus (PPV).

[2] = system: CT26 syngeneic mouse model; assay: Tumor shrinking activity in CT26 syngeneic mouse model (FIG. 9C)
Procedure: FIG. 9C: Tumor shrinking activity of selected anti ILDR2 antibodies according to the present invention in a CT26 syngeneic mouse model. Tumor shrinking activity is measured as decrease of tumor volume, relative to an Isotype control.

B16-F10 tumor model = assay: B16-F10 therapeutic treatment, combination with aPD-L1; type: in vivo, mouse
Text: as §1

B16F10 OVA tumor model = assay: B16F10 OVA model, combination with OVA vaccine and CpG oligo; type: in vivo, mouse; settings: for Mean tumor size: BAY 1905254 10 mg/kg i.p. q3d×3 starting day 8, 50 μg OVA + 10 μg CPG s.c. on day 9
Procedure: 50 μg OVA (in 50 μl)+10 μg CPG (in 10 μl)+140 μl PBS=200 μl/mouse was applied subcutaneously to the left flank adjacent to the tumor, on day 9. The CpG oligonucleotide was ODN 1826 (5′-[…]-3′; bases are phosphorothioate/nuclease resistant) that is specific for mouse TLR9 was used (Invivogen MA-1826-5).

[3] = system: IL-2 secretion of CD4 T cells co-cultured with M-CSF mature monocytes; assay: Mixed lymphocyte reaction (MLR), antibody-evoked IL-2 secretion by Elisa; type: cell-based
Procedure: To determine the effect of these antibodies on ILDR2 function an immunomodulation assay was carried out, namely a mixed lymphocyte reaction assay. The mixed lymphocyte reaction (MLR) is a test in which populations of lymphocytes are mixed together, and the resulting reactions are measured. Technically, it is an ex-vivo cellular immune assay that occurs between two allogeneic lymphocyte populations. In a one-way MLR, only one lymphocyte population can respond or proliferate. In a two-way MLR, both populations can proliferate. MLR's are performed to assess how T cells react to external stimuli, e.g., exposure to immune checkpoint inhibitors, like anti PD-1 antibodies (Wang et al 2014) and anti-PD-L1 antibodies. In the present context, antibody-evoked IL-2 secretion was measured with this assay.
In the present case, CD4 T cells from one donor were co-cultured with M-CSF mature monocytes from another donor in the presence of various ILDR2 antibodies, a function-blocking PD-L1 antibody or an isotype control for 5 days. […] Results are shown in FIG. 9B and the following table 3.

3C9-D11-H11 tumor model = assay: 3C9-D11-H11 therapeutic, combination with aPD-L1; type: in vivo, mouse
Text: as §1

B16F10 tumor model = assay: B16-F10 preventive treatment, syngeneic tumor model; type: in vivo, mouse; settings: for Mean tumor size: 10 mg/kg i.p. q3d×6 from tumor inoculation
Text: as §1

CT26 C4.4a tumor model = assay: CT26 C4.4a model, combination with C4.4A ADC; type: in vivo, mouse; settings: for Mean tumor size: BAY 1905254 10 mg/kg i.p. q3d×5, C4.4A ADC 10 mg/kg i.v. q4d×3, starting day 6
Procedure: This model is a derivative of the parental CT26 model expressing murine C4.4a on the surface of the tumor cells.
C4.4A ADC (antibody-drug conjugate BAY1129980), which is composed of an antibody against a structural homolog of the urokinase-type plasminogen activator receptor (uPAR) and tumor-associated antigen, C4.4a, and conjugated with a cytotoxic agent, was dosed 10 mg/kg i.v. q4d×3, starting day 6.

B16-F10 OVA tumor model = assay: B16-F10 OVA model, combination with Docetaxel; settings: for Mean tumor size: BAY 1905254 10 mg/kg i.p. q3d×3 starting day 8, Docetaxel once 20 mg/kg i.v. on day 8
Procedure: Eight weeks old female C57B1/6N Cr1 BR mice (body weight 18-20 g) from Charles River Deutschland, Sulzfeld were used for the B16-F10 OVA tumor model. The model is a derivative of the B16F10 cell line expressing the allo-antigen ovalbumin which can be recognized by antigen-specific T cells. The experiment was initiated after an acclimatization period of 5 days. Animals were kept in a 12-hour light/dark cycle. Food and water was available ad libitum. Housing temperature was maintained at 21° C. Mice (n=12 per group) were s.c. inoculated with 1×10^4 B16F10 OVA tumor cells into the left flank and assigned to experimental groups. At treatment initiation, animals were marked and each cage was labeled with the cage number, study number and the number of animals per cage.
Agents were dosed i.p. at 10 mg/kg q3d×3, starting day 8.

For “BAY1905254: anti ILDR2 antibody, heavy chain SEQ ID NO:42, light chain SEQ ID NO:43”, the “tumor shrinkage measured against an isotype control (in words)” value [1] was “do”, the “tumor size of the treatment group vs. isotype control (T/C)” value (CT26 tumor model; CT26, BAY1905254 3 mg/kg i.p. q3d×3 starting d7) was 0.95 and the “tumor growth vs. isotype control (in words)” value (CT26 tumor model; CT26, BAY1905254 3 mg/kg q3d i.p. from d7, 2 way ANOVA) was “no delay of tumor growth”. It also gave a Mean tumor size (CT26 tumor model; day 7 post inoculation, BAY1905254 3 mg/kg i.p. q3d×3 starting d7) of 136.38 mm3, a Mean tumor size (CT26 tumor model; day 10 post inoculation, BAY1905254 3 mg/kg i.p. q3d×3 starting d7) of 227.41 mm3 and a Mean tumor size (CT26 tumor model; day 13 post inoculation, BAY1905254 3 mg/kg i.p. q3d×3 starting d7) of 367.22 mm3. The Mean tumor size (CT26 tumor model; day 15 post inoculation, BAY1905254 3 mg/kg i.p. q3d×3 starting d7) was 576.28 mm3, the “anti-tumor activity in an in vivo tumor model compared with anti PD-L1 antibody (in words)” value [2] was “comparable to that of an anti PD-L1 antibody” and the “tumor growth vs. isotype control (in words)” value (B16-F10 tumor model; B16-F10 therapeutic, 10 mg/kg q3d i.p., 2 way ANOVA) was “No monotherapy efficacy”. The “tumor size of the treatment group vs. isotype control (T/C)” value (B16-F10 tumor model; B16-F10 therapeutic, 10 mg/kg i.p. q3d×5 starting d3) was 1.08, the Mean tumor size (B16-F10 tumor model; day 6 post inoculation, 10 mg/kg i.p. q3d×5 starting d3) was 76.07 mm3 and the Mean tumor size (B16-F10 tumor model; day 8 post inoculation, 10 mg/kg i.p. q3d×5 starting d3) was 80.52 mm3. The Mean tumor size (B16-F10 tumor model; day 10 post inoculation, 10 mg/kg i.p. q3d×5 starting d3) was 158.01 mm3, the Mean tumor size (B16-F10 tumor model; day 13 post inoculation, 10 mg/kg i.p. q3d×5 starting d3) was 479.92 mm3 and the Mean tumor size (B16-F10 tumor model; day 15 post inoculation, 10 mg/kg i.p. q3d×5 starting d3) was 986.99 mm3. For the same substance, the “tumor size of the treatment group vs. Control (T/C)” value (B16F10 OVA tumor model; B16F10 OVA, BAY 1905254 10 mg/kg i.p. q3d×3, OVA + CPG s.c. once) was 0.66, the “tumor growth vs. isotype control (in words)” value (B16F10 OVA tumor model; B16F10 OVA, BAY1905254 10 mg/kg q3d i.p., OVA and CPG, 2 way ANOVA) was “moderate delay of tumor growth” and the Mean tumor size (B16F10 OVA tumor model; day 9 post inoculation) was 66.09 mm3. The Mean tumor size (B16F10 OVA tumor model; day 11 post inoculation) was 137.52 mm3, the Mean tumor size (B16F10 OVA tumor model; day 14 post inoculation) was 314.75 mm3 and the Mean tumor size (B16F10 OVA tumor model; day 16 post inoculation) was 483.38 mm3. For the same substance, the Mean tumor size (B16F10 OVA tumor model; day 18 post inoculation) was 711.93 mm3, the “IL2 concentration (% over isotype control)” value ([3]; MLR, 5 days, supernatant Elisa) was 91 +/− 11% and the “IL-2 secretion / cytokine induction in MLR (in words)” value ([3]; vs isotype control or anti PD-L1 antibody) was “do not mediate IL-2 induction”. For the same substance, the “tumor size of the treatment group vs. isotype control (T/C)” value (3C9-D11-H11 tumor model; 3C9-D11-H11, 10 mg/kg i.p. q3d×5 starting d8) was 0.87, the “tumor growth vs. isotype control (in words)” value (3C9-D11-H11 tumor model; 3C9-D11-H11, 10 mg/kg q3d i.p. from d8, 2 way ANOVA) was “not the case” and the Mean tumor size (3C9-D11-H11 tumor model; day 7 post inoculation, 10 mg/kg i.p. q3d×5 starting d8) was 63.28 mm3. For the same substance, the Mean tumor size (3C9-D11-H11 tumor model; day 10 post inoculation, 10 mg/kg i.p. q3d×5 starting d8) was 67.18 mm3, the Mean tumor size (3C9-D11-H11 tumor model; day 14 post inoculation, 10 mg/kg i.p. q3d×5 starting d8) was 198.87 mm3 and the Mean tumor size (3C9-D11-H11 tumor model; day 16 post inoculation, 10 mg/kg i.p. q3d×5 starting d8) was 314.06 mm3. The Mean tumor size (3C9-D11-H11 tumor model; day 18 post inoculation, 10 mg/kg i.p. q3d×5 starting d8) was 574.54 mm3, the Mean tumor size (3C9-D11-H11 tumor model; day 21 post inoculation, 10 mg/kg i.p. q3d×5 starting d8) was 1377.9 mm3 and the “tumor size of the treatment group vs. isotype control (T/C)” value (B16F10 tumor model; B16-F10 preventive, 10 mg/kg i.p. q3d×6) was 0.63. For the same substance, the “tumor growth vs. isotype control (in words)” value (B16F10 tumor model; B16F10, 10 mg/kg i.p., start of treatment d0, 2 way ANOVA) was “significantly delayed”, the Mean tumor size (B16F10 tumor model; day 3 post inoculation) was 34.5 mm3 and the Mean tumor size (B16F10 tumor model; day 6 post inoculation) was 77.3 mm3. It also gave a Mean tumor size (B16F10 tumor model; day 8 post inoculation) of 90.1 mm3, a Mean tumor size (B16F10 tumor model; day 11 post inoculation) of 286.8 mm3 and a Mean tumor size (B16F10 tumor model; day 13 post inoculation) of 389.2 mm3. The Mean tumor size (B16F10 tumor model; day 15 post inoculation) was 1059.9 mm3, the Mean tumor size (B16F10 tumor model; day 17 post inoculation) was 1204 mm3 and the “tumor size of the treatment group vs. Control (T/C)” value (CT26 C4.4a tumor model; CT26 C4.4a, BAY 1905254 10 mg/kg i.p. q3d×5, C4.4A ADC 10 mg/kg i.v. q4d×3) was 1.13. For the same substance, the “tumor growth vs. isotype control (in words)” value (CT26 C4.4a tumor model; FIG. 8, BAY1905254 10 mg/kg i.p., C4.4A ADC 10 mg/kg i.v., from d6, 2 way ANOVA) was “does not lead to a delay in tumor growth”, the Mean tumor size (CT26 C4.4a tumor model; day 6 post inoculation) was 56.89 mm3 and the Mean tumor size (CT26 C4.4a tumor model; day 10 post inoculation) was 141.28 mm3. The Mean tumor size (CT26 C4.4a tumor model; day 12 post inoculation) was 220.99 mm3, the Mean tumor size (CT26 C4.4a tumor model; day 14 post inoculation) was 260.95 mm3 and the Mean tumor size (CT26 C4.4a tumor model; day 17 post inoculation) was 566.58 mm3. For the same substance, the Mean tumor size (CT26 C4.4a tumor model; day 19 post inoculation) was 706.01 mm3, the “tumor size of the treatment group vs. Control (T/C)” value (B16-F10 OVA tumor model; B16-F10 OVA, BAY 1905254 10 mg/kg i.p. q3d×3, Docetaxel once 20 mg/kg i.v.) was 0.86 and the “tumor growth vs. isotype control (in words)” value (B16-F10 OVA tumor model; B16F10 OVA, BAY1905254 10 mg/kg q3d i.p., Docetaxel 20 mg/kg i.v. once, 2 way ANOVA) was “moderate delay of tumor growth”. It also gave a Mean tumor size (B16-F10 OVA tumor model; day 8 post inoculation) of 86.26 mm3, a Mean tumor size (B16-F10 OVA tumor model; day 11 post inoculation) of 97.06 mm3 and a Mean tumor size (B16-F10 OVA tumor model; day 14 post inoculation) of 207.75 mm3. The Mean tumor size (B16-F10 OVA tumor model; day 16 post inoculation) was 382.66 mm3.
